Measured values from DBAASP.
Values after ≈ are worked out from the molar mass of the structure shown. One block for each compound: values may come before it.

Tests used:
Assay in all cases: ≥ marks a high value that may be exact or a test limit, other limits are often not marked, values filed in µg/mL are converted to µM
Aerococcus viridans = system: Aerococcus viridans
Alternaria brassicicola = system: Alternaria brassicicola
Ascochyta pisi = system: Ascochyta pisi
Bacillus megaterium = system: Bacillus megaterium
Botrytis cinerea = system: Botrytis cinerea
Fusarium culmorum = system: Fusarium culmorum
Fusarium haematococcum = system: Fusarium haematococcum
Micrococcus luteus = system: Micrococcus luteus
Neurospora crassa = system: Neurospora crassa
Pediococcus acidilactici = system: Pediococcus acidilactici
Trichoderma viride = system: Trichoderma viride
[1] = system: Mycobacterium tuberculosis CSU87
[2] = system: Mycobacterium tuberculosis H37Rv
Bacillus subtilis = system: Bacillus subtilis
Escherichia coli HB101 = system: Escherichia coli HB101
Pseudomonas aeruginosa = system: Pseudomonas aeruginosa
Salmonella typhimurium = system: Salmonella typhimurium
Staphylococcus aureus = system: Staphylococcus aureus
Candida albicans SC5314 = system: Candida albicans SC5314
[3] = system: Cryptococcus neoformans var. grubii H99
[4] = system: Escherichia coli DH5alpha
[5] = system: Pseudomonas aeruginosa ATCC 27853
[6] = system: Xanthomonas campestris pv. campestris
[7] = system: Xanthomonas oryzae pv. oryzae
[8] = system: Pseudomonas aeruginosa 37
[9] = system: Pseudomonas aeruginosa 6206
[10] = system: Pseudomonas aeruginosa 6294
[11] = system: Pseudomonas aeruginosa ATCC 19660
Staphylococcus aureus 31 = system: Staphylococcus aureus 31
Staphylococcus aureus 38 = system: Staphylococcus aureus 38
[12] = system: Staphylococcus aureus ATCC 6538
[13] = system: Aspergillus awamori KCTC 6915
[14] = system: Aspergillus flavus KCTC 6905
[15] = system: Aspergillus fumigatus KCTC 6145
[16] = system: Aspergillus parasiticus KCTC 6598
[17] = system: Bacillus subtilis KCTC 1998
[18] = system: Candida albicans KCTC 7270
[19] = system: Escherichia coli ATCC 25922
[20] = system: Listeria monocytogenes KCTC 3710
[21] = system: Proteus vulgaris KCTC 2433
[22] = system: Pseudomonas aeruginosa ATCC 15692
[23] = system: Salmonella typhimurium KCTC 1926
[24] = system: Staphylococcus aureus ATCC 25923
[25] = system: Staphylococcus epidermidis ATCC 12228
[26] = system: Trichosporon beigelii KCTC 7707
[27] = system: Escherichia coli CIP 76.24
[28] = system: Staphylococcus aureus CIP 53.156

SMILES: CC[C@H](C)[C@H](NC(=O)[C@@H](NC(=O)[C@@H]1CCCN1C(=O)[C@@H](NC(=O)[C@@H]1CCCN1C(=O)[C@H](CCCCN)NC(=O)[C@H](CCCCN)NC(=O)[C@H](CO)NC(=O)CN)C(C)C)[C@@H](C)CC)C(=O)N[C@@H](Cc1ccc(O)cc1)C(=O)N[C@H]1CSSC[C@@H](C(=O)O)NC(=O)[C@H](CCCCN)NC(=O)CNC(=O)[C@H]([C@@H](C)O)NC(=O)[C@H](CCCN=C(N)N)NC(=O)[C@H](CCCN=C(N)N)NC(=O)[C@H](CC(N)=O)NC1=O [GSKKPVPIIYCNRRTGKC]
- MIC (Aerococcus viridans): 3.54 µM (≈ 7.14 µg/mL)
- MIC (Alternaria brassicicola): 7.07 µM (≈ 14.3 µg/mL)
- MIC (Ascochyta pisi): 28.3 µM (≈ 57.1 µg/mL)
- MIC (Bacillus megaterium): 7.07 µM (≈ 14.3 µg/mL)
- MIC (Botrytis cinerea): 7.07 µM (≈ 14.3 µg/mL)
- MIC (Fusarium culmorum): 14.1 µM (≈ 28.5 µg/mL)
- MIC (Fusarium haematococcum): 7.07 µM (≈ 14.3 µg/mL)
- MIC (Micrococcus luteus): 7.07 µM (≈ 14.3 µg/mL)
- MIC (Neurospora crassa): 14.1 µM (≈ 28.5 µg/mL)
- MIC (Pediococcus acidilactici): 28.3 µM (≈ 57.1 µg/mL)
- MIC (Trichoderma viride): 28.3 µM (≈ 57.1 µg/mL)

SMILES: CSCC[C@H](NC(=O)[C@H](CCCCN)NC(=O)[C@H](CCCCN)NC(=O)[C@H](CC(C)C)NC(=O)[C@H](CC(C)C)NC(=O)[C@H](CCCCN)NC(=O)[C@H](CCCCN)NC(=O)[C@H](CC(C)C)NC(=O)[C@@H](N)CC(C)C)C(N)=O [LLKKLLKKM]
- MIC [1]: ≥ 112 µM
- MIC [2]: ≥ 449 µM

SMILES: CC[C@H](C)[C@H](NC(=O)[C@@H](NC(=O)[C@@H]1CCCN1C(=O)[C@@H](NC(=O)[C@@H]1CCCN1C(=O)[C@H](CCCCN)NC(=O)[C@H](CCCCN)NC(=O)[C@H](CO)NC(=O)CN)C(C)C)[C@@H](C)CC)C(=O)N[C@@H](Cc1ccc(O)cc1)C(=O)N[C@H]1CSSC[C@@H](C(=O)N[C@@H](CCC(N)=O)C(=O)N[C@@H](CCCN=C(N)N)C(=O)N[C@@H](CCSC)C(=O)O)NC(=O)[C@H](CCCCN)NC(=O)CNC(=O)[C@H](CCCN=C(N)N)NC(=O)[C@H](CCCN=C(N)N)NC(=O)[C@H](CC(N)=O)NC1=O [GSKKPVPIIYCNRRGKCQRM]
- MIC (Bacillus subtilis): 5.2 µM (≈ 12.1 µg/mL)
- MIC (Escherichia coli HB101): 0.64 µM (≈ 1.49 µg/mL)
- MIC (Pseudomonas aeruginosa): 2.6 µM (≈ 6.07 µg/mL)
- MIC (Salmonella typhimurium): 1.3 µM (≈ 3.03 µg/mL)
- MIC (Staphylococcus aureus): 10.4 µM (≈ 24.3 µg/mL)

SMILES: CC[C@H](C)[C@H](NC(=O)[C@H](Cc1c[nH]c2ccccc12)NC(=O)[C@H](CO)NC(=O)[C@@H](NC(=O)[C@H](CC(C)C)NC(=O)[C@@H](N)[C@@H](C)O)[C@@H](C)CC)C(=O)N[C@@H](CCCCN)C(=O)N[C@@H](CC(N)=O)C(=O)N[C@@H](CCCCN)C(=O)N[C@@H](CCCN=C(N)N)C(=O)N[C@@H](CCCCN)C(=O)N[C@@H](CCC(N)=O)C(=O)N[C@@H](CCCN=C(N)N)C(=O)N1CCC[C@H]1C(=O)N[C@@H](CCCN=C(N)N)C(=O)N[C@H](C(=O)N[C@@H](CO)C(=O)N[C@@H](CCCN=C(N)N)C(=O)N[C@@H](CCCN=C(N)N)C(=O)N[C@@H](CCCN=C(N)N)C(=O)N[C@@H](CCCN=C(N)N)C(=O)N[C@@H](CCCN=C(N)N)C(=O)N[C@@H](CCCN=C(N)N)C(=O)NCC(=O)NCC(=O)N[C@@H](CCCN=C(N)N)C(=O)N[C@@H](CCCN=C(N)N)C(=O)N[C@@H](CCCN=C(N)N)C(=O)N[C@@H](CCCN=C(N)N)C(=O)O)C(C)C [TLISWIKNKRKQRPRVSRRRRRRGGRRRR]
- MIC [8]: ≥ 33 µM
- MIC [9]: ≥ 66 µM
- MIC [10]: ≥ 66 µM
- MIC [11]: ≥ 132 µM
- MIC (Staphylococcus aureus 31): ≥ 33 µM
- MIC (Staphylococcus aureus 38): ≥ 33 µM
- MIC [12]: 16.5 µM (≈ 62.5 µg/mL)

SMILES: CC[C@H](C)[C@H](NC(=O)[C@H](CCCCN)NC(=O)[C@H](CCCCN)NC(=O)[C@H](C)NC(=O)[C@H](CC(C)C)NC(=O)[C@H](CCCCN)NC(=O)[C@H](CCCCN)NC(=O)[C@H](CC(C)C)NC(=O)[C@H](CCCN=C(N)N)NC(=O)[C@H](CCCCN)NC(=O)[C@@H](N)Cc1ccccc1)C(=O)N[C@@H](Cc1c[nH]c2ccccc12)C(=O)N[C@@H](CC(N)=O)C(=O)N[C@@H](Cc1c[nH]c2ccccc12)C(=O)N[C@@H](CCCCN)C(N)=O [FKRLKKLAKKIWNWK]
- MIC [13]: 16 µM (≈ 31.8 µg/mL)
- MIC [14]: 16 µM (≈ 31.8 µg/mL)
- MIC [15]: 8 µM (≈ 15.9 µg/mL)
- MIC [16]: 8 µM (≈ 15.9 µg/mL)
- MIC [17]: 4 µM (≈ 7.95 µg/mL)
- MIC [18]: 8 µM (≈ 15.9 µg/mL)
- MIC [19]: 4 µM (≈ 7.95 µg/mL)
- MIC [20]: 2 µM (≈ 3.97 µg/mL)
- MIC [21]: 4 µM (≈ 7.95 µg/mL)
- MIC [22]: 2 µM (≈ 3.97 µg/mL)
- MIC [23]: 2 µM (≈ 3.97 µg/mL)
- MIC [24]: 4 µM (≈ 7.95 µg/mL)
- MIC [25]: 2.83 µM (≈ 5.62 µg/mL)
- MIC [26]: 16 µM (≈ 31.8 µg/mL)

Further lines, results first:

- MIC (Bacillus subtilis): ≥ 100 µM
- MIC (Candida albicans SC5314): ≥ 100 µM
- MIC [3]: ≥ 100 µM
- MIC [4]: ≥ 100 µM
- MIC [5]: > 100 µM
- MIC [6]: ≥ 100 µM
- MIC [7]: ≥ 100 µM
SMILES: CC(C)C[C@H](NC(=O)CNC(=O)[C@H](CS)NC(=O)CNC(=O)[C@H](CC(N)=O)NC(=O)CNC(=O)[C@H](Cc1c[nH]c2ccccc12)NC(=O)CNC(=O)[C@H](CCCN=C(N)N)NC(=O)[C@H](CC(=O)O)NC(=O)[C@@H](N)C(C)C)C(=O)N[C@@H](Cc1ccccc1)C(=O)NCC(=O)N[C@@H](CCCCN)C(=O)NCC(=O)NCC(=O)O [VDRGWGNGCGLFGKGG]

- MIC [27]: ≥ 49 µM
- MIC [28]: 9 µM (≈ 16.6 µg/mL)
SMILES: CC[C@H](C)[C@H](N)C(=O)N1CCC[C@H]1C(=O)N[C@@H](Cc1c[nH]c2ccccc12)C(=O)NCC(=O)N[C@@H](CCCCN)C(=O)N[C@H](C(=O)N[C@@H](CCCCN)C(=O)N[C@@H](CC(=O)O)C(=O)N[C@@H](Cc1ccccc1)C(=O)N[C@@H](CC(C)C)C(=O)N[C@H](C(=O)NCC(=O)NCC(=O)N[C@@H](CCSC)C(=O)N[C@@H](CCCCN)C(=O)N[C@@H](C)C(=O)N[C@H](C(N)=O)C(C)C)C(C)C)C(C)C [IPWGKVKDFLVGGMKAV]
